From patent US9695155B2, “Herbicidal substituted pyrimidinyloxy benzene compounds” (E. I. DU PONT DE NEMOURS AND COMPANY, priority 2013, dated 2017)

What was measured:
Test in all cases: Test C preemergence
[1] = test system: giant foxtail; assay type: in vivo, Setaria faberii; conditions: Setaria faberi, pre-emergence
Text: (§1) Seeds of plant species selected from blackgrass (Alopecurus myosuroides), Italian ryegrass (Lolium multiflorum), wheat, winter (winter wheat, Triticum aestivum), galium (catchweed bedstraw, Galium aparine), corn (Zea mays), large (Lg) crabgrass (Digitaria sanguinalis), giant foxtail (Setaria faberii), johnsongrass (Sorghum halepense), lambsquarters (Chenopodium album), morningglory (Ipomoea coccinea), yellow nutsedge (Cyperus esculentus), pigweed (Amaranthus retroflexus), ragweed (common ragweed, Ambrosia elatior), soybean (Glycine max), barnyardgrass (Echinochloa crus-galli), oilseed rape (Brassica napus), waterhemp (common waterhemp, Amaranthus rudis), kochia (Kochia scoparia), wild oat (Avena fatua), surinam grass (Brachiaria decumbens), foxtail, green (green foxtail, Setaria viridis), goosegrass (Eleusine indica), bromegrass, downy (downy bromegrass, Bromus tectorum), nightshade (eastern black nightshade, Solanum ptycanthum), cocklebur (common cocklebur, Xanthium strumarium), cupgrass, woolly (woolly cupgrass, Eriochloa villosa), bermudagrass (Cynodon dactylon), sunflower, (common oilseed sunflower, Helianthus annuus), Russian thistle (Salsola kali), and velvetleaf (Abutilon theophrasti) were planted into a blend of loam soil and sand and treated preemergence with test chemicals formulated in a non-phytotoxic solvent mixture which included a surfactant.
(§2) At the same time, plants selected from these crop and weed species and also barley, winter (winter barley, Hordeum vulgare), windgrass (Apera spica-venti), chickweed (common chickweed, Stellaria media), deadnettle (henbit deadnettle, Lamium amplexicaule), and canarygrass (littleseed canarygrass, Phalaris minor) were planted in pots containing Redi-Earth® planting medium (Scotts Company, 14111 Scottslawn Road, Marysville, Ohio 43041) comprising spaghnum peat moss, vermiculite, wetting agent and starter nutrients and treated with postemergence applications of test chemicals formulated in the same manner. Plants ranged in height from 2 to 18 cm (1- to 4-leaf stage) for postemergence treatments. Treated plants and controls were maintained in a greenhouse for 13 to 15 days, after which time all species were compared to controls and visually evaluated. Plant response ratings, summarized in Table C, are based on a scale of 0 to 100 where 0 is no effect and 100 is complete control. A dash (-) response means no test result.

[2] = test system: pigweed; assay type: in vivo, Amaranthus retroflexus; conditions: Amaranthus retroflexus, pre-emergence
Text: as §1, §2

[3] = test system: velvetleaf; assay type: in vivo, Abutilon theophrasti; conditions: Abutilon theophrasti, pre-emergence
Text: as §1, §2

[4] = test system: soybean; assay type: in vivo, Glycine max; conditions: Glycine max, pre-emergence
Text: as §1, §2

[5] = test system: wheat, winter; assay type: in vivo, Triticum aestivum; conditions: Triticum aestivum, pre-emergence
Text: as §1, §2

[6] = test system: blackgrass; assay type: in vivo, Alopecurus myosuroides; conditions: Alopecurus myosuroides, pre-emergence, preemergence, scale 0 (no effect) to 100 (complete control), read-out: Blackgrass plant response rating
Text: as §1, §2

[7] = test system: Italian ryegrass; assay type: in vivo, Lolium multiflorum; conditions: Lolium multiflorum, pre-emergence
Text: as §1, §2

[8] = test system: large (Lg) crabgrass; assay type: in vivo, Digitaria sanguinalis; conditions: Digitaria sanguinalis, pre-emergence
Text: as §1, §2

[9] = test system: ragweed; assay type: in vivo, Ambrosia elatior; conditions: Ambrosia artemisiifolia, pre-emergence
Text: as §1, §2

[10] = test system: oilseed rape; assay type: in vivo, Brassica napus; conditions: Brassica napus, pre-emergence
Text: as §1, §2

[11] = test system: waterhemp; assay type: in vivo, Amaranthus rudis; conditions: Amaranthus tuberculatus, pre-emergence
Text: as §1, §2

[12] = test system: johnsongrass; assay type: in vivo, Sorghum halepense; conditions: Sorghum halepense, pre-emergence
Text: as §1, §2

[13] = test system: barnyardgrass; assay type: in vivo, Echinochloa crus-galli; conditions: Echinochloa crus-galli, pre-emergence
Text: as §1, §2

## N#Cc1cccc(Oc2ncc(Cl)cn2)c1-n1cc(Br)cn1 [Compound 52, 2-(4-bromo-1H-pyrazol-1-yl)-3-[(5-chloro-2-pyrimidinyl)oxy]benzonitrile]
[1]; 62 g ai/ha, preemergence, scale 0 (no effect) to 100 (complete control), read-out: Foxtail, Giant plant response rating
  pest or weed control at 62 g/ha: 100%
[1]; 125 g ai/ha, preemergence, scale 0 (no effect) to 100 (complete control), read-out: Foxtail, Giant plant response rating
  pest or weed control at 125 g/ha: 100%
[1]; 250 g ai/ha, preemergence, scale 0 (no effect) to 100 (complete control), read-out: Foxtail, Giant plant response rating
  pest or weed control at 250 g/ha: 100%
[1]; Preemergence, 31 g ai/ha, scale 0 to 100, 0 no effect, 100 complete control, read-out: Plant response rating, Foxtail, Giant
  pest or weed control at 31 g/ha: 100%
[2]; 62 g ai/ha, preemergence, scale 0 (no effect) to 100 (complete control), read-out: Pigweed plant response rating
  pest or weed control at 62 g/ha: 100%
[2]; 125 g ai/ha, preemergence, scale 0 (no effect) to 100 (complete control), read-out: Pigweed plant response rating
  pest or weed control at 125 g/ha: 100%
[2]; 250 g ai/ha, preemergence, scale 0 (no effect) to 100 (complete control), read-out: Pigweed plant response rating
  pest or weed control at 250 g/ha: 100%
[2]; Preemergence, 31 g ai/ha, scale 0 to 100, 0 no effect, 100 complete control, read-out: Plant response rating, Pigweed
  pest or weed control at 31 g/ha: 100%
[3]; 62 g ai/ha, preemergence, scale 0 (no effect) to 100 (complete control), read-out: Velvetleaf plant response rating
  pest or weed control at 62 g/ha: 100%
[3]; 125 g ai/ha, preemergence, scale 0 (no effect) to 100 (complete control), read-out: Velvetleaf plant response rating
  pest or weed control at 125 g/ha: 100%
[3]; 250 g ai/ha, preemergence, scale 0 (no effect) to 100 (complete control), read-out: Velvetleaf plant response rating
  pest or weed control at 250 g/ha: 100%
[3]; Preemergence, 31 g ai/ha, scale 0 to 100, 0 no effect, 100 complete control, read-out: Plant response rating, Velvetleaf
  pest or weed control at 31 g/ha: 75%
[4]; 62 g ai/ha, preemergence, scale 0 (no effect) to 100 (complete control), read-out: Soybean plant response rating
  plant injury at 62 g/ha: 85%
[4]; 125 g ai/ha, preemergence, scale 0 (no effect) to 100 (complete control), read-out: Soybean plant response rating
  plant injury at 125 g/ha: 90%
[4]; 250 g ai/ha, preemergence, scale 0 (no effect) to 100 (complete control), read-out: Soybean plant response rating
  plant injury at 250 g/ha: 90%
[4]; Preemergence, 31 g ai/ha, scale 0 to 100, 0 no effect, 100 complete control, read-out: Plant response rating, Soybean
  plant injury at 31 g/ha: 5%
[5]; 62 g ai/ha, preemergence, scale 0 (no effect) to 100 (complete control), read-out: Wheat plant response rating
  plant injury at 62 g/ha: 0%
[5]; 125 g ai/ha, preemergence, scale 0 (no effect) to 100 (complete control), read-out: Wheat plant response rating
  plant injury at 125 g/ha: 30%
[5]; 250 g ai/ha, preemergence, scale 0 (no effect) to 100 (complete control), read-out: Wheat plant response rating
  plant injury at 250 g/ha: 45%
[5]; Preemergence, 31 g ai/ha, scale 0 to 100, 0 no effect, 100 complete control, read-out: Plant response rating, Wheat
  plant injury at 31 g/ha: 0%
[6]; 62 g ai/ha
  pest or weed control at 62 g/ha: 85%
[6]; 125 g ai/ha
  pest or weed control at 125 g/ha: 90%
[6]; 250 g ai/ha
  pest or weed control at 250 g/ha: 90%
[7]; 62 g ai/ha, preemergence, scale 0 (no effect) to 100 (complete control), read-out: Ryegrass, Italian plant response rating
  pest or weed control at 62 g/ha: 55%
[7]; 125 g ai/ha, preemergence, scale 0 (no effect) to 100 (complete control), read-out: Ryegrass, Italian plant response rating
  pest or weed control at 125 g/ha: 80%
[7]; 250 g ai/ha, preemergence, scale 0 (no effect) to 100 (complete control), read-out: Ryegrass, Italian plant response rating
  pest or weed control at 250 g/ha: 90%
[7]; Preemergence, 31 g ai/ha, scale 0 to 100, 0 no effect, 100 complete control, read-out: Plant response rating, Ryegrass, Italian
  pest or weed control at 31 g/ha: 5%
[8]; 62 g ai/ha, preemergence, scale 0 (no effect) to 100 (complete control), read-out: Crabgrass, Large plant response rating
  pest or weed control at 62 g/ha: 100%
[8]; 125 g ai/ha, preemergence, scale 0 (no effect) to 100 (complete control), read-out: Crabgrass, Large plant response rating
  pest or weed control at 125 g/ha: 100%
[8]; 250 g ai/ha, preemergence, scale 0 (no effect) to 100 (complete control), read-out: Crabgrass, Large plant response rating
  pest or weed control at 250 g/ha: 100%
[8]; Preemergence, 31 g ai/ha, scale 0 to 100, 0 no effect, 100 complete control, read-out: Plant response rating, Crabgrass, Large
  pest or weed control at 31 g/ha: 100%
[9]; 62 g ai/ha, preemergence, scale 0 (no effect) to 100 (complete control), read-out: Ragweed plant response rating
  pest or weed control at 62 g/ha: 90%
[9]; 125 g ai/ha, preemergence, scale 0 (no effect) to 100 (complete control), read-out: Ragweed plant response rating
  pest or weed control at 125 g/ha: 95%
[9]; 250 g ai/ha, preemergence, scale 0 (no effect) to 100 (complete control), read-out: Ragweed plant response rating
  pest or weed control at 250 g/ha: 100%
[9]; Preemergence, 31 g ai/ha, scale 0 to 100, 0 no effect, 100 complete control, read-out: Plant response rating, Ragweed
  pest or weed control at 31 g/ha: 90%
[10]; 62 g ai/ha, preemergence, scale 0 (no effect) to 100 (complete control), read-out: Oilseed Rape plant response rating
  plant injury at 62 g/ha: 100%
[10]; 125 g ai/ha, preemergence, scale 0 (no effect) to 100 (complete control), read-out: Oilseed Rape plant response rating
  plant injury at 125 g/ha: 100%
[10]; 250 g ai/ha, preemergence, scale 0 (no effect) to 100 (complete control), read-out: Oilseed Rape plant response rating
  plant injury at 250 g/ha: 100%
[10]; Preemergence, 31 g ai/ha, scale 0 to 100, 0 no effect, 100 complete control, read-out: Plant response rating, Oilseed Rape
  plant injury at 31 g/ha: 100%
[11]; 62 g ai/ha, preemergence, scale 0 (no effect) to 100 (complete control), read-out: Waterhemp plant response rating
  pest or weed control at 62 g/ha: 100%
[11]; 125 g ai/ha, preemergence, scale 0 (no effect) to 100 (complete control), read-out: Waterhemp plant response rating
  pest or weed control at 125 g/ha: 100%
[11]; 250 g ai/ha, preemergence, scale 0 (no effect) to 100 (complete control), read-out: Waterhemp plant response rating
  pest or weed control at 250 g/ha: 100%
[11]; Preemergence, 31 g ai/ha, scale 0 to 100, 0 no effect, 100 complete control, read-out: Plant response rating, Waterhemp
  pest or weed control at 31 g/ha: 100%
[12]; 62 g ai/ha, preemergence, scale 0 (no effect) to 100 (complete control), read-out: Johnsongrass plant response rating
  pest or weed control at 62 g/ha: 25%
[12]; 125 g ai/ha, preemergence, scale 0 (no effect) to 100 (complete control), read-out: Johnsongrass plant response rating
  pest or weed control at 125 g/ha: 90%
[12]; 250 g ai/ha, preemergence, scale 0 (no effect) to 100 (complete control), read-out: Johnsongrass plant response rating
  pest or weed control at 250 g/ha: 100%
[12]; Preemergence, 31 g ai/ha, scale 0 to 100, 0 no effect, 100 complete control, read-out: Plant response rating, Johnsongrass
  pest or weed control at 31 g/ha: 15%
[13]; 62 g ai/ha, preemergence, scale 0 (no effect) to 100 (complete control), read-out: Barnyardgrass plant response rating
  pest or weed control at 62 g/ha: 95%
[13]; 125 g ai/ha, preemergence, scale 0 (no effect) to 100 (complete control), read-out: Barnyardgrass plant response rating
  pest or weed control at 125 g/ha: 100%
[13]; 250 g ai/ha, preemergence, scale 0 (no effect) to 100 (complete control), read-out: Barnyardgrass plant response rating
  pest or weed control at 250 g/ha: 100%
[13]; Preemergence, 31 g ai/ha, scale 0 to 100, 0 no effect, 100 complete control, read-out: Plant response rating, Barnyardgrass
  pest or weed control at 31 g/ha: 50%
